# Reference: article PMC3425665 (Journal of the American Chemical Society, 2012)
# Target: aspartate aminotransferase (AAT), K258A mutant (Escherichia coli, UniProt P00509, K246A, form not given)
# Test: X-ray crystallography
# Type: binding
# Conditions: covalent external aldimine with L-aspartate; replaces PLP
# Sequence of aspartate aminotransferase (AAT), K258A mutant (P00509 whole entry K246A, form open): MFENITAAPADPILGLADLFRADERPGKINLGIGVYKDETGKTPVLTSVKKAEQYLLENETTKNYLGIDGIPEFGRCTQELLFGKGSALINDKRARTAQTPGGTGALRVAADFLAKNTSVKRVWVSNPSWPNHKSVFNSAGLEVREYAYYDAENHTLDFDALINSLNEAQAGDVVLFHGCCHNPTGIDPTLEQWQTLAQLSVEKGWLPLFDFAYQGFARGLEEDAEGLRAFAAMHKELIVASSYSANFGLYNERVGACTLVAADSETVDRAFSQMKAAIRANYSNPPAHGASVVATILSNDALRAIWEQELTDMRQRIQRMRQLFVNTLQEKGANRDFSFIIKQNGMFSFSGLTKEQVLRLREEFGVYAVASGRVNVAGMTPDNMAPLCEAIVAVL
compound,measurement,value
Cc1ccc(COP(=O)(O)O)c(C=O)c1O [deazaPLP],X-ray crystallography (1.5 Å),structure of the K258A/deazaPLP/L-aspartate external aldimine intermediate determined here by X-ray crystallography
